The record followed here is patent US5399588A, “Naphthalenylmethyl cycloalkenone acetic acids and analogs thereof useful as aldose reductase inhibitors” (American Home Products Corporation, priority 1993, dated 1995).

As a reminder, the inhibition is the relative decrease from the control value, in per cent. Read a high inhibition as strong suppression.

For experiment [1], the target named is T1, bovine lens aldose reductase (Bos taurus, UniProt P16116).
T1 construct: in the preparation of the enzyme from bovine lens; from tissue; host or cells: bovine lens
Description: In vitro Inhibition of Aldose Reductase in the Bovine Lens. The experiment is classed as biochemical. The conditions noted are these: DL-glyceraldehyde as substrate; for inhibition at 0.04 µM: 4 × 10^-8 M; for inhibition at 10 µM: 10^-5 M; for inhibition at 1 µM: 10^-6 M. As for the experimental part: II. In vitro Inhibition of Aldose Reductase in the Bovine Lens
The aldose reductase inhibiting effects of the compounds of formula (I) were also tested by employing an in vitro testing procedure similar to that described by S. Hayman and J. H. Kinoshita, J. Biol. Chem., 240, 877 (1965) wherein the ability of the invention compounds to inhibit bovine lens aldose reductase with DL-glyceraldehyde as the substrate was determined. In the present case the procedure of Hayman and Kinoshita was modified in that the final chromatography step was omitted in the preparation of the enzyme from bovine lens.

For another experiment, the system named is aldose reductase. Description: In vivo Inhibition of Aldose Reductase in Galactosemic Rats. The conditions noted are these: four days, polyol accumulation. Also noted: species or system male rats, Sprague-Dawley strain. From the text:
I. In vivo Inhibition of Aldose Reductase in Galactosemic Rats
The aldose reductase inhibiting property of the compounds of this invention and the utilization of the compounds in preventing, diminishing and alleviating diabetic complications are demonstrable in experiments using galactosemic rats, see Dvornik et al., Science, 182, 1146 (1973).
(a) Four or more groups of six male rats, 50-70 g, Sprague-Dawley strain, were used. The first group, the control group, was fed a mixture of laboratory chow (rodent Laboratory Chow, Purina) and glucose at 20% (w/w %) concentration. An untreated galactosemic group was fed a similar diet in which galactose was substituted for glucose. The third group was fed a diet prepared by mixing a given amount of the test compound with the galactose containing diet. The concentration of galactose in the diet of the treated groups was the same as that for the untreated galactosemic group.
(b) After four days, the animals were killed by euthanization. Both the lens and sciatic nerve were removed, weighed and stored frozen for polyol determination.
(c) The polyol determination was performed by a modification of the procedure of M. Kraml and L. Cosyns, Clin. Biochem., 2, 373 (1969). Only two minor reagent changes were made: (a) the rinsing mixture was an aqueous 5% (w/v) trichloroacetic acid solution and (b) the stock solution was prepared by dissolving 25 mg of dulcitol in 100 mL of an aqueous trichloroacetic acid solution. [N.B.: For each experiment the average value found in the tissue from rats fed the glucose diet was subtracted from the individual values found in the corresponding tissue in galactose-fed rats to obtain the amount of polyol accumulated].

Setting [2] is: 100 mg/kg/day in galactose-containing diet.

Structures are written as SMILES.

As to `O=C(O)CC1=C(Cc2ccc3c(Br)cccc3c2)C(=O)CCC1` [Example 1, [2-(5-Bromo-naphthalen-2-ylmethyl)-3-oxo-cyclohex-1-enyl]-acetic acid], 0.04 µM produced 78% inhibition in experiment [1]. For the same compound, the “% Inhibition of aldose reductase” value with aldose reductase (setting [2]) is reported as 68%. `COc1ccc2cc(CC3=C(CC(=O)O)CCCC3=O)ccc2c1Br` [Example 2, [2-(5-bromo-6-methoxy-naphthalen-2-ylmethyl)-3-oxocyclohex-1-enyl] acetic acid] came in with an inhibition at 0.1 µM in experiment [1] (10^-7 M) of 50%. The “% Inhibition of aldose reductase” value in the experiment with aldose reductase (setting [2]) amounted to 71%. `O=C(O)CC1=C(Cc2ccc3c(Cl)cccc3c2)C(=O)CCC1` [Example 3, [2-(5-chloro-naphthalen-2-ylmethyl)-3-oxo-cyclohex-1-enyl]-acetic acid]: the inhibition at 0.04 µM in experiment [1] was 79%. The results for the “% Inhibition of aldose reductase” value with aldose reductase (105 mg/kg/day in galactose-containing diet) and in the experiment with aldose reductase (202 mg/kg/day in galactose-containing diet) were 52% and 73%, respectively. `O=C(O)CC1=C(Cc2ccc3c(Cl)cccc3c2)C(=O)CC1` [Example 4, [2-(5-chloro-naphthalen-2-ylmethyl)-3-oxo-cyclopen-1-enyl]-acetic acid] displayed an inhibition at 0.04 µM in experiment [1] of 62%. In the experiment with aldose reductase (setting [2]), the “% Inhibition of aldose reductase” value turned out to be 37%.

`COC(=O)NC(=O)CC1=C(Cc2ccc3c(Br)cccc3c2)C(=O)CCC1` [Example 5, [[2-(5-bromo-naphthalen-2-ylmethyl)-3-oxo-cyclohex-1-enyl]acetyl]carbamic acid methyl ester]: testing at 10 µM in experiment [1] gave an inhibition of 27%. The “% Inhibition of aldose reductase” value in the experiment on aldose reductase (setting [2]) worked out at 45%. On to `COC(=O)NC(=O)CC1=C(Cc2ccc3c(Cl)cccc3c2)C(=O)CC1` [Example 6, [2-[2-(5-chloro-naphthalen-2-ylmethyl)-3-oxo-cyclopent-1-enyl]-acetyl]carbamic acid methyl ester], for which the inhibition at 10 µM in experiment [1] worked out at 19%. For the compound `O=C(O)CC1=C(Cc2ccc3ccccc3c2)C(=O)CCC1` [Example 7, [2-(naphthalen-2-ylmethyl)-3-oxo-cyclohex-1-enyl]-acetic acid], in experiment [1], at 1 µM the inhibition was 41%. As to `O=C(O)COC1=C(Cc2ccc3c(Cl)cccc3c2)C(=O)CCC1` [Example 8, [[2-(5-chloro-naphthalen-2-ylmethyl)-3-oxo-1-cyclohex-1-enyl]oxy]acetic acid], the inhibition at 0.04 µM in experiment [1] worked out at 81%. Consider `O=C(O)COC1=C(Cc2ccc3ccccc3c2)C(=O)CCC1` [Example 9, [[2-(naphthalen-2-ylmethyl)-3-oxo-1-cyclohex-1-enyl]oxy]acetic acid], for which, in experiment [1], testing at 1 µM gave an inhibition of 87%.

In turn, `O=C(O)COC1=C(Cc2ccc3c(Br)cccc3c2)C(=O)CCC1` [Example 10, [[2-(5-bromo-naphthalen-2-ylmethyl)-3-oxo-cyclohex-1-enyl]oxy]-acetic acid] registered an inhibition at 0.04 µM in experiment [1] of 86%. `O=C(O)COC1=C(Cc2ccc3c(Cl)cccc3c2)C(=O)CC1` [Example 11, [[2-(5-chloro-naphthalen-2-ylmethyl)-3-oxo-cyclopent-1-enyl]oxy]-acetic acid] gave an inhibition at 0.04 µM in experiment [1] of 70%.

On to `O=C(O)COC1=C(Cc2ccc3ccccc3c2)C(=O)CC1` [Example 12, [[2-(2-Naphthalen-2-ylmethyl)-3-oxo-cyclopent-1-enyl]oxy]-acetic acid], for which the inhibition at 1 µM in experiment [1] was 61%. Compound `COc1ccc2c(CC3=C(CC(=O)O)CCCC3=O)cccc2c1C(F)(F)F` [Example 13, [2-(6-methoxy-5-trifluoromethyl-naphthalen-1-ylmethyl)-3-oxo-cyclohex-1-enyl]-acetic acid] returned an inhibition at 10 µM in experiment [1] of 51%. On the same count and under the same terms, under `COc1ccc2c(CC3=C(CC(=O)O)CCC3=O)cccc2c1C(F)(F)F` [Example 14, [2-(6-Methoxy-5-trifluoromethyl-naphthalen-1-ylmethyl)-3-oxo-cyclopent-1-enyl]-acetic acid] stands 84%.
